According to patent US20070128217A1 (priority 2003, published 2007):

What was measured:
[1] = test system: antibodies in sera from SARS patients (sera 1a, 1b, 2, 6, 37, 62, London, SARS-yellow, SARS-green); assay type: binding, human; parameters: Binding of serum 6 to linear peptides of protein X1 of SARS-CoV Urbani / Binding of serum 37 to linear peptides of protein X1 of SARS-CoV Urbani / Binding of serum 6 to looped/cyclic peptide (PEPSCAN-ELISA) / Binding of serum 37 to looped/cyclic peptide (PEPSCAN-ELISA) / Binding of serum 37 to looped/cyclic peptides of protein X1 of SARS-CoV Urbani / Binding of serum 6 to linear peptides of protein X2 / Binding of serum 37 to linear peptides of protein X2 / Binding of serum 37 to looped/cyclic peptides of protein X2 of SARS-CoV Urbani / Binding of serum 6 to linear peptides of protein M of SARS-CoV Urbani / Binding of serum 37 to linear peptides of protein M of SARS-CoV Urbani / Binding of serum 6 to looped/cyclic peptides of protein M of SARS-CoV Urbani / Binding of serum 37 to looped/cyclic peptides of protein M of SARS-CoV Urbani / Binding of serum 6 to linear peptides of protein X3 of SARS-CoV Urbani / Binding of serum 37 to linear peptides of protein X3 of SARS-CoV Urbani / Binding of serum 37 to looped/cyclic peptides of protein X3 of SARS-CoV Urbani / Binding of serum 6 to linear peptides of protein X4 of SARS-CoV Urbani / Binding of serum 37 to linear peptides of protein X4 of SARS-CoV Urbani / Binding of serum 37 to looped/cyclic peptides of protein X4 of SARS-CoV Urbani / Binding of serum 6 to linear peptides of protein X5 of SARS-CoV Urbani / Binding of serum 37 to linear peptides of protein X5 of SARS-CoV Urbani / Binding of serum 37 to looped/cyclic peptides of protein X5 of SARS-CoV Urbani / Binding of serum 6 to linear peptides of protein N of SARS-CoV Urbani / Binding of serum 37 to linear peptides of protein N of SARS-CoV Urbani / Binding of serum 6 to linear peptide (PEPSCAN-ELISA) / Binding of serum 1a to looped/cyclic peptides of protein N of SARS-CoV Urbani / Binding of serum 1b to looped/cyclic peptides of protein N of SARS-CoV Urbani / Binding of serum 2 to looped/cyclic peptides of protein N of SARS-CoV Urbani / Binding of serum 6 to looped/cyclic peptides of protein N of SARS-CoV Urbani / Binding of serum 37 to looped/cyclic peptides of protein N of SARS-CoV Urbani / Binding of serum 62 to looped/cyclic peptides of protein N of SARS-CoV Urbani / Binding of serum London to looped/cyclic peptides of protein N of SARS-CoV Urbani / Binding of serum SARS-green to looped/cyclic peptides of protein N of SARS-CoV Urbani: unit not given here
[2] = test system: control sera (pooled serum of ten healthy LUMC hospital workers; commercial negative donor pooled serum from the Dutch bloodbank); assay type: binding, human; parameters: Binding of Control serum LUMC to linear peptides / Binding of Control serum Blood-bank to linear peptides / Binding of Control serum LUMC to looped peptides / Binding of Control Serum Blood-Bank to Looped peptides / Binding of Control serum LUMC to linear peptides of the protein M of SARS-CoV Urbani / Binding of Control serum Blood-bank to linear peptides of the protein M of SARS-CoV Urbani / Binding of Control serum LUMC to looped peptides of the protein M of SARS-CoV Urbani / Binding of Control Serum Blood-Bank to Looped peptides of the protein M of SARS-CoV Urbani: unit not given here
[3] = test system: rabbit serum obtained by immunizing a rabbit with the SARS-CoV strain Frankfurt 1; assay type: binding; parameters: Binding of a rabbit serum to linear peptides / Binding of a rabbit serum to looped peptides / Rabbit serum linear peptides / Rabbit serum looped peptides / Binding of a rabbit serum to linear peptides of protein N of SARS-CoV Urbani (Rabbit serum linear peptides) / Binding of a rabbit serum to looped/cyclic peptides of protein N of SARS-CoV Urbani (Rabbit serum looped peptides): unit not given here

Sequence	Binding of serum 1a to linear peptides of protein X1 of SARS-CoV Urbani [1]	Binding of serum 1b to linear peptides of protein X1 of SARS-CoV Urbani [1]	Binding of serum 2 to linear peptides of protein X1 of SARS-CoV Urbani [1]	Binding of serum 6 to linear peptides of protein X1 of SARS-CoV Urbani [1]	Binding of serum 37 to linear peptides of protein X1 of SARS-CoV Urbani [1]	Binding of serum 62 to linear peptides of protein X1 of SARS-CoV Urbani [1]	Binding of serum London to linear peptides of protein X1 of SARS-CoV Urbani [1]	Binding of serum SARS-green to linear peptides of protein X1 of SARS-CoV Urbani [1]	Binding of serum SARS-yellow to linear peptides of protein X1 of SARS-CoV Urbani [1]	Binding of Control Serum Blood-Bank to Looped peptides [2]	Binding of Control serum Blood-bank to linear peptides [2]	Binding of Control serum LUMC to linear peptides [2]	Binding of Control serum LUMC to looped peptides [2]	Binding of a rabbit serum to linear peptides [3]	Binding of a rabbit serum to looped peptides [3]	further results
VIGVAFLAVFQSATK	0.5	0.4	0.4	0.4	0.5	0.4	0.2	0.1	0.2	0.5	0.5	0.5	0.5	0.1	0.6	Binding of serum 1a to looped/cyclic peptide (PEPSCAN-ELISA) [1]: 0.4; Binding of serum 1b to looped/cyclic peptide (PEPSCAN-ELISA) [1]: 0.3; Binding of serum 2 to looped/cyclic peptide (PEPSCAN-ELISA) [1]: 0.3; Binding of serum 6 to looped/cyclic peptide (PEPSCAN-ELISA) [1]: 0.6; Binding of serum 37 to looped/cyclic peptide (PEPSCAN-ELISA) [1]: 0.4; Binding of serum 62 to looped/cyclic peptide (PEPSCAN-ELISA) [1]: 0.4; Binding of serum London to looped/cyclic peptide (PEPSCAN-ELISA) [1]: 0.7; Binding of serum SARS-green to looped/cyclic peptide (PEPSCAN-ELISA) [1]: 0.2; Binding of serum SARS-yellow to looped/cyclic peptide (PEPSCAN-ELISA) [1]: 0.5
VKDYVVVHGYFTEVY	0.7	0.6	0.4	0.4	0.6	0.5	0.2	0.2	0.4	0.5	0.5	0.5	0.6	0.1	0.6	Binding of serum 1a to looped/cyclic peptides of protein X1 of SARS-CoV Urbani [1]: 0.5; Binding of serum 1b to looped/cyclic peptides of protein X1 of SARS-CoV Urbani [1]: 0.4; Binding of serum 2 to looped/cyclic peptides of protein X1 of SARS-CoV Urbani [1]: 0.4; Binding of serum 6 to looped/cyclic peptides of protein X1 of SARS-CoV Urbani [1]: 0.2; Binding of serum 37 to looped/cyclic peptides of protein X1 of SARS-CoV Urbani [1]: 0.6; Binding of serum 62 to looped/cyclic peptides of protein X1 of SARS-CoV Urbani [1]: 0.5; Binding of serum London to looped/cyclic peptides of protein X1 of SARS-CoV Urbani [1]: 0.2; Binding of serum SARS-green to looped/cyclic peptides of protein X1 of SARS-CoV Urbani [1]: 0.2; Binding of serum SARS-yellow to looped/cyclic peptides of protein X1 of SARS-CoV Urbani [1]: 0.5
